Columns and labels:
[1] = Storage stability (retest period) of the crystalline form; format: physicochemical
Description: (§1) Stability data supports the retest period of not less than 6 months if bimatoprost crystalline form I is stored in an appropriate container at 2 to 8° C. and at 25° C.

[2] = Thermodynamic stability of the crystalline modifications of bimatoprost; format: physicochemical; details: temperature range between −70 and +30° C.
Description: as §1
The importance of bimatoprost crystalline form I rests primarily (but not exclusively) in its thermodynamic stability. […] For example, the crystalline form I may be easily prepared by recrystallizing, triturating, or reslurring of crystalline form A.

retest period supported by stability data ([1]; stored in an appropriate container at 2 to 8° C.): not less than 6 months | retest period supported by stability data ([1]; stored in an appropriate container at 25° C.): not less than 6 months | relative stability among crystalline modifications of bimatoprost [2]: most stable crystalline modification
SMILES: CCNC(=O)CCC/C=C\C[C@@H]1[C@@H](/C=C/[C@@H](O)CCc2ccccc2)[C@H](O)C[C@@H]1O [Bimatoprost crystalline form I, (9S,11R,15S)-9,11,15-trihydroxy-17-phenyl-18,19,20-trinor-5Z,13E-prostadienoic acid ethylamide]
